Measurements published in ChEMBL document CHEMBL1201862, “PubChem BioAssay data set” (2004).
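Cultured in 96-well plates, cells were exposed to test compound for 48 hours across five concentrations. Abbreviation: GI50, concentration required for 50% inhibition of growth.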 The source made the active and inactive calls. No stated cut-off is given here; in the data, active = GI50 up to about 1.1 µM and inactive = higher.

How the values were obtained:
Assay in all cases: NCI-60 cell line screen, 48 h
[1] = tested on: HOP-92
[2] = tested on: ACHN
[3] = tested on: SK-MEL-28
[4] = tested on: NCI-H23
[5] = tested on: TK-10
[6] = tested on: U-251
[7] = tested on: SN12C
[8] = tested on: HCC 2998
[9] = tested on: SR
[10] = tested on: EKVX
[11] = tested on: 786-0
[12] = tested on: SNB-75
[13] = tested on: NCI-H460
[14] = tested on: SF-268
[15] = tested on: HCT-116
[16] = tested on: OVCAR-8
[17] = tested on: SF-295

Measured: GI50

O=C(CC(=O)c1ccc([N+](=O)[O-])cc1)C(=O)Nc1nccs1
inactive: [1] > 100 µM | [2] > 100 µM | [3] > 81.5 µM | [4] > 100 µM | [5] > 100 µM | [6] > 100 µM | [7] > 100 µM | [8] > 100 µM | [9] > 100 µM | [10] > 100 µM | [11] > 100 µM | [12] > 100 µM | [13] > 100 µM | [14] > 100 µM

CCO/N=[N+](\[O-])N(CC)CC
inactive: [15] > 100 µM | [1] > 100 µM | [2] > 100 µM | [3] > 100 µM | [4] > 100 µM | [5] > 100 µM | [7] > 100 µM | [8] > 100 µM | [16] > 100 µM | [9] > 100 µM | [17] > 100 µM | [10] > 100 µM | [13] > 100 µM | [14] > 100 µM

O=C1C(c2ccccc2)=[N+]([O-])c2cc([N+](=O)[O-])ccc21
inactive: [15] 23.8 µM | [1] 30.5 µM | [2] 24.9 µM | [3] 22.6 µM | [4] 43.6 µM | [5] 20.1 µM | [6] 27.7 µM | [7] 25.6 µM | [8] 27.5 µM | [16] 16.4 µM | [17] 48.2 µM | [10] 17.4 µM | [11] 26.3 µM | [12] 41.9 µM | [13] 24.7 µM | [14] 19.7 µM

COc1cc(OC)c([C@@H]2OC(=O)C3C2C(=O)O[C@H]3c2cc(OC)c(OC)cc2OC)cc1OC (stereo partly specified)
inactive: [15] > 100 µM | [1] > 10 µM | [2] > 100 µM | [3] > 100 µM | [4] > 100 µM | [6] > 100 µM | [7] > 100 µM | [8] > 100 µM | [16] > 100 µM | [9] 51.6 µM | [17] > 100 µM | [10] > 100 µM | [11] > 100 µM | [12] > 100 µM | [13] > 100 µM

COC(=O)/C(=N/NC(C)(C)C)C(C(=O)OC)C(=O)C(=O)Nc1nc2ccc([N+](=O)[O-])cc2s1 (stereo unspecified)
inactive: [15] > 100 µM | [2] > 100 µM | [3] > 100 µM | [4] > 100 µM | [5] > 100 µM | [6] > 100 µM | [7] > 100 µM | [8] > 100 µM | [16] > 100 µM | [9] > 100 µM | [17] > 100 µM | [10] > 100 µM | [11] > 100 µM | [13] > 100 µM | [14] > 100 µM

COc1ccc(/C(Cl)=C(\C=O)c2ccc(Cl)cc2)cc1OC
inactive: [15] 4.33 µM | [2] 3.18 µM | [4] 3.01 µM | [5] 5.26 µM | [6] 3.85 µM | [7] 3.72 µM | [8] 14.9 µM | [16] 4.03 µM | [9] 2.49 µM | [17] 4.15 µM | [10] 4.47 µM | [12] 3.85 µM | [13] 3.54 µM | [14] 12.3 µM

Nc1nc(SCCC/C=C/B(O)O)nc2c1ncn2C1OC(CO)C(O)C1O (stereo unspecified)
inactive: [15] > 243 µM | [1] > 243 µM | [2] > 243 µM | [3] > 243 µM | [4] > 243 µM | [5] > 243 µM | [6] > 243 µM | [7] > 243 µM | [8] > 243 µM | [16] > 243 µM | [9] > 243 µM | [17] > 243 µM | [10] > 243 µM | [12] > 243 µM | [13] > 243 µM | [14] > 243 µM

O=S1(=O)OCCOS(=O)(=O)C1Cl
inactive: [15] > 100 µM | [1] > 100 µM | [3] > 100 µM | [4] > 100 µM | [5] > 100 µM | [7] > 100 µM | [8] > 100 µM | [16] > 100 µM | [9] > 100 µM | [17] > 100 µM | [10] > 100 µM | [11] > 100 µM | [12] > 100 µM | [14] > 100 µM

N#CC(c1nc2ccccc2nc1Cl)S(=O)(=O)c1ccccc1 (stereo unspecified)
inactive: [15] > 100 µM | [1] 27.4 µM | [2] > 100 µM | [3] > 100 µM | [4] 37.5 µM | [5] > 100 µM | [6] 83.8 µM | [7] 39.8 µM | [8] 65.9 µM | [16] 74 µM | [9] > 100 µM | [10] > 100 µM | [11] > 100 µM | [12] > 100 µM | [13] > 100 µM | [14] > 100 µM

NC1=NS(=O)(=O)Nc2nc(-c3ccc([N+](=O)[O-])o3)[nH]c21
inactive: [15] 4.58 µM | [1] 14 µM | [2] 16.9 µM | [3] 16 µM | [4] 19.6 µM | [5] 19 µM | [6] 16.9 µM | [7] 17.7 µM | [8] 16.8 µM | [16] 25.1 µM | [9] 4.73 µM | [17] 16.3 µM | [11] 15.6 µM | [12] 16 µM | [13] 20.2 µM | [14] 20 µM

O=C1OC(=O)C2C3C=CC(C12)C1C2C=CC2C31 (stereo unspecified)
inactive: [15] > 100 µM | [1] > 100 µM | [2] > 100 µM | [3] > 100 µM | [4] > 100 µM | [5] > 100 µM | [6] > 100 µM | [7] > 100 µM | [8] > 100 µM | [16] > 100 µM | [9] > 100 µM | [17] > 100 µM | [10] > 100 µM | [11] > 100 µM | [13] > 100 µM | [14] > 100 µM

C=C1C(OC(C)=O)CC(OC(C)=O)C2(C)C(OC(C)=O)C(OC(C)=O)C3=C(C)C(OC(=O)/C=C/c4ccccc4)CC(C(OC(C)=O)C12)C3(C)C (stereo unspecified)
inactive: [15] > 100 µM | [1] 21.8 µM | [2] 35.5 µM | [5] > 100 µM | [6] 36.2 µM | [7] > 100 µM | [8] > 100 µM | [16] 46.3 µM | [9] > 100 µM | [17] 23.9 µM | [11] 30.8 µM | [12] 15.1 µM | [13] > 100 µM | [14] 26.7 µM

COC(=O)CC(C(C(=O)OCc1ccccc1)C(C)O)N1C(=O)OCC1c1ccccc1 (stereo unspecified)
inactive: [15] > 100 µM | [2] 63.2 µM | [3] > 100 µM | [4] 60.1 µM | [5] > 100 µM | [6] 83 µM | [7] > 100 µM | [8] > 100 µM | [16] 91.6 µM | [9] 38.1 µM | [17] 45 µM | [10] 62.1 µM | [11] > 100 µM | [12] 20 µM | [13] 68.2 µM | [14] 97.5 µM
